In assay [1] the target is T1, Fibroblast growth factor receptor 1 (Homo sapiens, UniProt P11362). The assay can be described thus: Inhibitory activity against FGFR1 kinase at 20 uM.
Assay [2] concerns the target T2, Platelet-derived growth factor receptor beta (Homo sapiens, UniProt P09619). The assay can be described thus: Inhibitory activity against PDGFRbeta kinase at 20 uM.
The target in assay [3] is T3, Vascular endothelial growth factor receptor 2 (Homo sapiens, UniProt P35968). The assay can be described thus: Inhibitory activity against VEGFR2 kinase at 20 uM.
For assay [4], the target named is T4, Epidermal growth factor receptor (Homo sapiens, UniProt P00533). Particulars: 20 uM.
Description: Inhibitory activity against EGFR kinase at 20 uM
Assay [5] concerns the target T1, Fibroblast growth factor receptor 1. The assay can be described thus: Inhibitory activity against FGFR1 kinase.
Target sequence in this assay (P11362 whole entry): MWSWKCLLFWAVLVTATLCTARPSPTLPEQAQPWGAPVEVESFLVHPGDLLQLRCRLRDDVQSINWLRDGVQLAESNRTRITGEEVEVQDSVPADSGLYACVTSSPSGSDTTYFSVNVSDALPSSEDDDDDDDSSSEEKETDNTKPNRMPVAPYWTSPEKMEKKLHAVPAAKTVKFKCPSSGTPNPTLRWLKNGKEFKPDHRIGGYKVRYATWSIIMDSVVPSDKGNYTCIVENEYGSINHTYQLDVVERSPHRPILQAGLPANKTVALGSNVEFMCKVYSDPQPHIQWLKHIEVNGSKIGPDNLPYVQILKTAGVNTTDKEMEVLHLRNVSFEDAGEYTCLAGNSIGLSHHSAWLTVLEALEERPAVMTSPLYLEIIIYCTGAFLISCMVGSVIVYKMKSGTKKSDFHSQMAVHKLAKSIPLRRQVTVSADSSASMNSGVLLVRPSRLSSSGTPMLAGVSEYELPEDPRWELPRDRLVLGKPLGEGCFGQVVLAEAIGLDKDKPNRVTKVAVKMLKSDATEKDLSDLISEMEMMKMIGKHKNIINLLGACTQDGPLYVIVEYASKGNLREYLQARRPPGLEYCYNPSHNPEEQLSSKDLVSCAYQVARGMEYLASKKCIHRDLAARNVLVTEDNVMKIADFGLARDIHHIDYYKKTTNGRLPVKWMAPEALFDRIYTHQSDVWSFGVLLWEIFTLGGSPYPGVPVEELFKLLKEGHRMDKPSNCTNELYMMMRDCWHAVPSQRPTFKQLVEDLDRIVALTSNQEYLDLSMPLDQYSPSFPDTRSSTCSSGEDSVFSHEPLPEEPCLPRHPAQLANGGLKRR
Assay [6] concerns the target T2, Platelet-derived growth factor receptor beta. The assay can be described thus: Inhibitory activity against PDGFRbeta kinase.
For assay [7], the target named is T4, Epidermal growth factor receptor. The assay can be described thus: Inhibitory activity against EGFR kinase.
Assay [8] deals with T3, Vascular endothelial growth factor receptor 2. The assay can be described thus: Inhibitory activity against VEGFR2 kinase.
The test system of another assay is A-431. In words: Cytotoxicity against epidermoid carcinoma A431 cell line. The assay is classed as functional, cell-based. Particulars: Homo sapiens.
The subject of assay [9] is HUVEC. In words: Inhibition of HUVEC tube formation at 10 uM. The settings on record: Homo sapiens. Type of assay: functional, cell-based.
In assay [10] the test system is HUVEC. In words: Inhibition of HUVEC tube formation at 2 uM. The assay is classed as functional, cell-based. Particulars: Homo sapiens.
The target in assay [11] is T4, Epidermal growth factor receptor. In words: Inhibition of MEK2 phosphorylation in EGF-treated A431 cells at 1 uM. The assay is classed as functional, cell-based. The settings on record: A-431.
Assay [12] has the same target. In words: Intracellular inhibition of autophosphorylation of EGFR in A431 cells. The assay is classed as functional, cell-based. Particulars: A-431.
The target is the same in assay [13]. In words: Inhibition of ERK2 phosphorylation in EGF-treated A431 cells at 1 uM. Type of assay: functional, cell-based. The settings on record: A-431.
Assay [14] shares this target. In words: Inhibition of MEK1 phosphorylation in EGF-treated A431 cells at 1 uM. The settings on record: A-431. The assay is classed as functional, cell-based.
The target is the same in assay [15]. The assay can be described thus: Inhibition of ERK1 phosphorylation in EGF-treated A431 cells at 1 uM. Type of assay: functional, cell-based. The settings on record: A-431.

Activity calls are given as the source filed them. No cut-off for these calls is given here. A value given as a limit tells only on which side of the number the result lay.

T3 sequence (P35968 whole entry): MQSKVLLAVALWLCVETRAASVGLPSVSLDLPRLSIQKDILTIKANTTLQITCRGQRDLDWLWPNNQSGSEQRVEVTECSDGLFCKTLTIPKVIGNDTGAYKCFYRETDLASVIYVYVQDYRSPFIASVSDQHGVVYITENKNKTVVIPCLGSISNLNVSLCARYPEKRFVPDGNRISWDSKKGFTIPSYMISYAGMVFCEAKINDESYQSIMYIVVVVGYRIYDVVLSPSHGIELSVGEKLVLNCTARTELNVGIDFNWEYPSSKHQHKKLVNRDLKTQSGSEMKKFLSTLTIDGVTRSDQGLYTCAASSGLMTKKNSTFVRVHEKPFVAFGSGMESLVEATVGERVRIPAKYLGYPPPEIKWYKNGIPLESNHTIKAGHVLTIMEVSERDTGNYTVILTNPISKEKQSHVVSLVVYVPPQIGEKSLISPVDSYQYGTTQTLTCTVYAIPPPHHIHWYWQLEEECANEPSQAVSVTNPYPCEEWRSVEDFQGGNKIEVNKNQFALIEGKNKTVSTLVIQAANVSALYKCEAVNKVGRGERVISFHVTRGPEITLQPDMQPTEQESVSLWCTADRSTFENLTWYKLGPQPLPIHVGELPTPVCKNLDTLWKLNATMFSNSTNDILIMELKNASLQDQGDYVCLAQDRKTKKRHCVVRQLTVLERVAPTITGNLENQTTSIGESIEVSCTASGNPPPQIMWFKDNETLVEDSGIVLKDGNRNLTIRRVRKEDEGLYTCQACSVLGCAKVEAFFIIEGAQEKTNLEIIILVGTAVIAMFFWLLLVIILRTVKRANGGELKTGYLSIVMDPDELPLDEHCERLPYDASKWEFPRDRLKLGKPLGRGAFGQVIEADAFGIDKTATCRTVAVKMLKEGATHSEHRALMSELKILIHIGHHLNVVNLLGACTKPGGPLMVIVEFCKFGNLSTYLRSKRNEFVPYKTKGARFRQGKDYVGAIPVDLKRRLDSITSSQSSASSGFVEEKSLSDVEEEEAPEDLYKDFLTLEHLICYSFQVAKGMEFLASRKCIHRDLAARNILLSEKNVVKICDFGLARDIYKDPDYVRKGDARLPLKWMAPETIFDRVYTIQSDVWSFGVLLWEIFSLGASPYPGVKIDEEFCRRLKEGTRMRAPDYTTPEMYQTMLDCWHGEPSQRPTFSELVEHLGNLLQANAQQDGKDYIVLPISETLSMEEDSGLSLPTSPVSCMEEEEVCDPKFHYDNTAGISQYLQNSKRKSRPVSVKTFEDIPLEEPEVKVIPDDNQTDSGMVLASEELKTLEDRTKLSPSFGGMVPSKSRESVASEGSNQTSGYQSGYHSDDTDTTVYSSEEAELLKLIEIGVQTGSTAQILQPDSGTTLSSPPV
T4 sequence (P00533 whole entry): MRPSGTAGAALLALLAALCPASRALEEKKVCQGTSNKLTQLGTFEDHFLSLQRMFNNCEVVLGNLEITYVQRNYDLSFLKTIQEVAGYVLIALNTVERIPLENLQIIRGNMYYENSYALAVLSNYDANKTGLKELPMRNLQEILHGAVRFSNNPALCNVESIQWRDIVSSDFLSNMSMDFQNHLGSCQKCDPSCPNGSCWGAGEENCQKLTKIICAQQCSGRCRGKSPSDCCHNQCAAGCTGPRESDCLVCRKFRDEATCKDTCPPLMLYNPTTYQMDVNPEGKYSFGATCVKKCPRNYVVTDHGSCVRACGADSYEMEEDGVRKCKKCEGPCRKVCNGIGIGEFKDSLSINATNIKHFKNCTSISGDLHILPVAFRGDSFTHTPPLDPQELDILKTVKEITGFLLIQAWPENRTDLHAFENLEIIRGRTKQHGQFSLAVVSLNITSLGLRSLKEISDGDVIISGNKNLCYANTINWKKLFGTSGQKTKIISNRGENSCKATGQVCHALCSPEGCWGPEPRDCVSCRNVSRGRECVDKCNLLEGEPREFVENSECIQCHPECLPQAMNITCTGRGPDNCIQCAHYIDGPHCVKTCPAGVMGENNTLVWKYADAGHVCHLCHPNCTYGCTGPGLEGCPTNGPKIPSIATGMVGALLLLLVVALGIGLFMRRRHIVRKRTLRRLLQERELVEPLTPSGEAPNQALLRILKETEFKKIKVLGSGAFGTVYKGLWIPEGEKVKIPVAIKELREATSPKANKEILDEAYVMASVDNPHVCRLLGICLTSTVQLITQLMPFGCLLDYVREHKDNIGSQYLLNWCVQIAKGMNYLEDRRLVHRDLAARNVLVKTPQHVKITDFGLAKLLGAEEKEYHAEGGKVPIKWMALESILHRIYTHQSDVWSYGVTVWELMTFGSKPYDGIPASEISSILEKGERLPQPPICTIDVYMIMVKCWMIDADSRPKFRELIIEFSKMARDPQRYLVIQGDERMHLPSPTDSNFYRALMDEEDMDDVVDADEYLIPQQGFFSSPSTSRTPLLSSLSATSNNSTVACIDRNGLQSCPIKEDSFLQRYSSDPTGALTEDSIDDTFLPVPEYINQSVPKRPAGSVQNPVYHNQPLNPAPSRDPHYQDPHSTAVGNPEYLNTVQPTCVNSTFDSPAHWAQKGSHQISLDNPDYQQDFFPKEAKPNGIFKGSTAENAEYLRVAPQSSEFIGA
T2 sequence (P09619 whole entry): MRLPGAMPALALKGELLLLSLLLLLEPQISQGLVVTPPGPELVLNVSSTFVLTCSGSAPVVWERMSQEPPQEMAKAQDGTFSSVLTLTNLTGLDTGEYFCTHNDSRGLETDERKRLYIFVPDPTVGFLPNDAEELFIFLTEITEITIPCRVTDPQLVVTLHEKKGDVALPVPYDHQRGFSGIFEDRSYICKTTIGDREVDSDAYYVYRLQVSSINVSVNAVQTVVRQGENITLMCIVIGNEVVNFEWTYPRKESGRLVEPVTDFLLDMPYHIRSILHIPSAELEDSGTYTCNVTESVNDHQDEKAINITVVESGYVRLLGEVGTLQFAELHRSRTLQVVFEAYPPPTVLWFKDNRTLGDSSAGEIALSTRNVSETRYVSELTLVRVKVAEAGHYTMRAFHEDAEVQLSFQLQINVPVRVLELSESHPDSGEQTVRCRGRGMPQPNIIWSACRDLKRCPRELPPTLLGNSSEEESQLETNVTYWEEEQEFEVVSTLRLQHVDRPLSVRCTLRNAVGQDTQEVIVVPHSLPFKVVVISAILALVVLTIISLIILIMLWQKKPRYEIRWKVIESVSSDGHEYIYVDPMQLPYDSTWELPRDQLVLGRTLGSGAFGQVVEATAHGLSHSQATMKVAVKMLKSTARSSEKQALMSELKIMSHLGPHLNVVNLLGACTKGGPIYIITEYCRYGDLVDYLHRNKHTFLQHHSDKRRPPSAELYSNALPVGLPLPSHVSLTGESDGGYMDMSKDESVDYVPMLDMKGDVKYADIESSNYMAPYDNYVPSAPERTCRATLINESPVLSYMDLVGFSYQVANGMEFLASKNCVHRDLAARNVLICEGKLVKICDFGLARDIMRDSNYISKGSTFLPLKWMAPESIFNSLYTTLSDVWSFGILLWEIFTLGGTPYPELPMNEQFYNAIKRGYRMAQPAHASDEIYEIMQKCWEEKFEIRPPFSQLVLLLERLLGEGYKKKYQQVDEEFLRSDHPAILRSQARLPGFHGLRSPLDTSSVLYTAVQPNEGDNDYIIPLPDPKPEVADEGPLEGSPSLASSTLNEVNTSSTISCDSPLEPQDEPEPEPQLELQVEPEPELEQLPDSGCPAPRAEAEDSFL

In the case of `COC(=O)c1c(OCCCN2CCN(c3ccccc3Cl)CC2)c2ccccc2c2oc3c(c12)C(=O)c1ccccc1C3=O`, the inhibition amounted to 55.5% in assay [1], 68.9% in [2], 62.1% in assay [3] and 68.3% in [4].
The matching figures for `COC(=O)c1c(OCc2ccc(C(F)(F)F)cc2)c2ccccc2c2oc3c(c12)C(=O)c1ccccc1C3=O`: 44.5%, 51.5%, 40.9% and 33.6%.
For `COC(=O)c1c(OCCN2CCN(Cc3ccc(C(F)(F)F)cc3)CC2)c2ccccc2c2oc3c(c12)C(=O)c1ccccc1C3=O`, in that order: 48.2%, 52%, 43.3% and 47.5%.
Turning to `N#CC(C#N)=C(N)/C(C#N)=C/c1cc(O)c(O)c(O)c1` [TYRPHOSTIN 51], the inhibition is 93% in [1], 82% in assay [2], 88% in assay [3] and 90% in assay [4]. For the same compound, the IC50 amounted to 4.9 µM in assay [5], 2.8 µM in assay [6], 4.1 µM in [7] and 4.3 µM in assay [8].
As for `COC(=O)c1c(OC)c2ccccc2c2oc3c(c12)C(=O)c1ccccc1C3=O`, the inhibition in [1] was 10.5%; in assay [2], 12.7%; in assay [3] it was -0.8%; in assay [4], 16.7%. Further, the values for the IC50 in [5], in assay [6] and in assay [7] were more than 50 µM, more than 50 µM and 12.6 µM, respectively.
Regarding `COC(=O)c1c(OCc2ccncc2)c2ccccc2c2oc3c(c12)C(=O)c1ccccc1C3=O`, the inhibition in assay [1] was found to be 2.6%; in assay [2], 2.9%; in assay [3], 3.1%; in [4], 19.4%.
`COC(=O)c1c(OCCN2CCCC2)c2ccccc2c2oc3c(c12)C(=O)c1ccccc1C3=O`: the inhibition in assay [1] was found to be 65.2%; in assay [2] it was 95.5%; in [3] it was 86.5%; in assay [4], 77.1%. In addition, the IC50 came to 23.8 µM in assay [5]; 1100 nM in the assay on A-431; 8.7 µM in assay [6]; 9 µM in assay [7]; 5.5 µM in assay [8].
For `COC(=O)c1c(OC(C)=O)c2ccccc2c2oc3c(c12)C(=O)c1ccccc1C3=O`, the results for the inhibition in assay [1], in assay [2] and in assay [4] were -8.1%, -0.3% and 21.6%, respectively.
For `COC(=O)c1c(OCCCN(C)C)c2ccccc2c2oc3c(c12)C(=O)c1ccccc1C3=O`, the inhibition was 51.2% in assay [1], 57.2% in assay [2], 57.5% in assay [3] and 72.4% in [4]. Moreover, the IC50 in [5] is 38.4 µM; in assay [6], 10.2 µM; in assay [7], 13.6 µM; in assay [8], 15.5 µM.
In the case of `COC(=O)c1c(OCCN(C)C)c2ccccc2c2oc3c(c12)C(=O)c1ccccc1C3=O`, the inhibition stood at 51% in assay [1], 56.5% in assay [2], 57.1% in [3] and 71% in assay [4]. In addition, the IC50 in assay [5] came out at 23.6 µM; in the assay with A-431, 1100 nM; in [6] it was 7.6 µM; in assay [7], 31 µM; in [8], 13 µM. The outcome with HUVEC [9] and in the assay with HUVEC [10] was Active.
`COC(=O)c1c(O)c2ccccc2c2oc3c(c12)C(=O)c1ccccc1C3=O`: the inhibition amounted to 12.6% in [1], 2.8% in assay [2], 16% in [3] and 21.4% in assay [4].
For `COC(=O)c1c(OCCN2CCOCC2)c2ccccc2c2oc3c(c12)C(=O)c1ccccc1C3=O`, in that order: 41.4%, 46.2%, 40.7% and 67.9%.
The matching figures for `COC(=O)c1c(OCc2ccc(C(=O)OC(C)(C)C)cc2)c2ccccc2c2oc3c(c12)C(=O)c1ccccc1C3=O`: 50.8%, 62.2%, 52.2% and 57.1%.
Turning to `CCCOc1c(C(=O)OC)c2c3c(oc2c2ccccc12)C(=O)c1ccccc1C3=O`, the inhibition in assay [1] is 2.4%; in assay [2], 5.7%; in assay [3] it was -2.1%; in [4], 38.7%. The IC50 in assay [5], in assay [6] and in [7] was more than 50 µM in each case.
Take `COC(=O)c1c(OCCN2CCCCC2)c2ccccc2c2oc3c(c12)C(=O)c1ccccc1C3=O`: the result (in assay [11]; in the assay on HUVEC [9]; in assay [12]; in assay [13]; in [14]; in assay [15]) was Active. Further, the inhibition stood at 79.1% in [1], 89.8% in [2], 81.7% in assay [3] and 84.3% in assay [4]. Besides, the IC50 in [5] turned out to be 7.1 µM; in the assay on A-431 it was 4300 nM; in assay [6] it was 5.5 µM; in assay [7], 2.8 µM; in assay [8], 4.6 µM.
Turning to `COC(=O)c1c(OCc2ccc(OC)cc2)c2ccccc2c2oc3c(c12)C(=O)c1ccccc1C3=O`, the inhibition was found to be 46% in [1], 69.4% in [2], 48.3% in assay [3] and 72.6% in assay [4].
As to `CCN(CC)CCOc1c(C(=O)OC)c2c3c(oc2c2ccccc12)C(=O)c1ccccc1C3=O`, the inhibition in assay [1] was 61.1%; in [2], 64.1%; in [3], 60.4%; in [4] it was 82.1%. Moreover, the IC50 turned out to be 8.8 µM in assay [5]; 1700 nM in the assay on A-431; 15.9 µM in assay [6]; 5.1 µM in assay [7]; 12.6 µM in assay [8]. Besides, the outcome (with HUVEC [9]; in assay [12]) was Active.

As a reminder, the inhibition is the drop in the measured response relative to a control, in per cent. The term IC50 denotes the concentration that inhibits the measured activity by half. A low value points to inhibition by little substance.

These data come from ChEMBL document CHEMBL1149378, “Naphthofuroquinone derivatives: inhibition of receptor tyrosine kinases” (Bioorg Med Chem Lett, 2006).
